Two molecules from patent publication US20260374739A1, “SMALL MOLECULAR WEIGHT CHEMICAL COMPOUND TO ANTAGONIZE EPH-EPHRIN TETRAMERIZATION AND INHIBIT BIDIRECTIONAL SIGNALING” (THE BOARD OF REGENTS OF THE UNIVERSITY OF TEXAS SYSTEM, priority 2022, published 2026) can be followed below.

SMILES strings stand for the structures. Marks after values point to notes of the source that are not given here.

Assay [1] concerns the target T1, EphrinB2-EphB2 (Homo sapiens, UniProt P29323).
T1 construct: soluble human EphB1-His, EphB2-His, and EphB4-His ectodomains; commercially available human EphrinB1-Fc (EB1), EphrinB2-Fc (EB2), and EphrinB3-Fc (EB3) ectodomain proteins; purchased
T1 sequence (P29323 19-543 limits assumed): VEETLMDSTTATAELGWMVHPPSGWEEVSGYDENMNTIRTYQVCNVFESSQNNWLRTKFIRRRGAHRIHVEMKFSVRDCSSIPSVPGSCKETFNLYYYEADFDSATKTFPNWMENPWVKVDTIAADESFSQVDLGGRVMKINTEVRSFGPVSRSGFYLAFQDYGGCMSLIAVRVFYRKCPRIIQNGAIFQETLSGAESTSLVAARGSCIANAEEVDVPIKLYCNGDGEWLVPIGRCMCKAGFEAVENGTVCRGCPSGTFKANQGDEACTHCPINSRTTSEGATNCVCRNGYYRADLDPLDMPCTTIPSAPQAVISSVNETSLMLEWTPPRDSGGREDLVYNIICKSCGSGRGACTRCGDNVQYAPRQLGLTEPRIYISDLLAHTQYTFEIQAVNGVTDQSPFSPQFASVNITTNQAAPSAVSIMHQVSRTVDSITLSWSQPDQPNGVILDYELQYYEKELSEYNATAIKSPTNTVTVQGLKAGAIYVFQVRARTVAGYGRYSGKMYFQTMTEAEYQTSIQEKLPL
The assay is described as follows: Octet tetramerization inhibition, immobilized human EphrinB2 binding to 50 nM soluble human EphB2. Conditions: EphrinB2-EphB2. Background: In BLI a coated tip is dipped into the sample, and binding shifts an interference pattern.

For a further assay, the target named is T2, EphrinB2-EphB1 (Homo sapiens, UniProt P54762).
T2 construct: soluble human EphB1-His, EphB2-His, and EphB4-His ectodomains; commercially available human EphrinB1-Fc (EB1), EphrinB2-Fc (EB2), and EphrinB3-Fc (EB3) ectodomain proteins; purchased
T2 sequence (P54762 18-540 limits assumed): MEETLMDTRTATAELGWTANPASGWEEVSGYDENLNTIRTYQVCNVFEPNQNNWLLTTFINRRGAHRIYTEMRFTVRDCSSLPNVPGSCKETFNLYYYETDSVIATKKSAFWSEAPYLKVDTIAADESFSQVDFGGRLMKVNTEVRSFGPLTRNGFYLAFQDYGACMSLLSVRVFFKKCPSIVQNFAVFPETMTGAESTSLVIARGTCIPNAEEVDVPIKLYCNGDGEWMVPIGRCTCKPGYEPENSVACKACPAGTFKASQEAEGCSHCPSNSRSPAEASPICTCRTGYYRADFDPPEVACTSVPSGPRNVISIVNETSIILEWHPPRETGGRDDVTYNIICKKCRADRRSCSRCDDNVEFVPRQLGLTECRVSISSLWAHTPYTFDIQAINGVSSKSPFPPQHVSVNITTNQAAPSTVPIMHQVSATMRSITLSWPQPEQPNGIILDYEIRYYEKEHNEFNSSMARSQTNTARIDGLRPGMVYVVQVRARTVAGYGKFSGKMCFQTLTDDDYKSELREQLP
The assay is described as follows: Octet 80 sec association/500 sec dissociation, immobilized human EphrinB2-Fc binding to soluble human EphB1-His. Conditions: for EphB1 Inhibition Percent, Inhibition of Association ONLY: at 3.2 μM and 80 seconds; for EphB1 Inhibition Percent, Inhibition of Association ONLY / EphB1 Inhibition Percent, Inhibition of Association-Dissociation: immobilized human EphrinB2, 25 nM soluble human EphB1; for EphB1 Inhibition Percent, Inhibition of Association-Dissociation: at 3.2 μM and 580 seconds. On the procedure:
(§1) In another experiment, whether certain A20 analogs might have specificity for different Eph receptors was tested. An Octet RED384 system was used to obtain biophysical ON-OFF binding data (association-dissociation) for the three different human EphrinB2-EphB1, EphrinB2-EphB2, and EphrinB2-EphB4 protein-protein interactions and to assess the effect of A20 chemicals on the binding kinetics.
(§2) FIGS. 72A-72C show three example Octet sensorgram response traces for the immobilized human EphrinB2 ectodomain protein binding to soluble forms of the human EphB1, EphB2, and EphB4 ectodomain proteins, in the absence or presence of an A20 chemical (buffer conditions are always PBSTD:PBS with 0.05% Tween-20, 1% DMSO, and +/− indicated chemical). After loading EphrinB2-Fc protein to Octet AHC biosensors, washing, and obtaining stable baseline measurements in the appropriate PBSTD (either with or without indicated chemical), the sensors are placed in its buffer that also contains the indicated soluble EphB protein for the association step (0-80″), and then returned to its buffer for the dissociation step (81″-580″). In each figure (FIGS. 72A-72C), a sensorgram run using 10 μM of the 2×HCl salt form of A20-I is compared to the no compound control run to exemplify the maximum level of reduced response signal typically obtained with a potent A20 chemical.
(§3) Because the response levels during the dissociation step plateau for the EphrinB2-EphB2 and EphrinB2-EphB1 interactions by the first 80″, AUCs were also calculated for run data encompassing the first 160″ of each experiment to account for both the 80″ association data (red asterisks) and the first 80″ of dissociation data (marked by green line and asterisks).
(§4) The selectivity of another A20 analog (a 3×HCL salt form of compound BQPB4) in comparison to previously tested compound, A20-1, was tested as described in Example 27 above.
(§5) Further to the experiments listed above, a series of dose-response experiments were conducted to determine the IC50 of a selected A20 chemical (A20-1) on the kinetics of human EphrinB2 ligand ectodomain protein binding to its cognate human EphB1, EphB2, and EphB4 receptor ectodomain proteins. FIG. 74A-74C are representative sensorgrams showing the effect of 0, 0.1, 0.2, 0.4, 0.8, 1.6, and 3.2 μM, concentrations of the 2×HCl salt of A20-I along with a 10 μM max standard (also A20-1) on three different Ephrin-EphB interactions (e.g., EphB1 in FIG. 74A, EphB2 in FIG. 74B and EphB4 in FIG. 74C). […] Additional IC50 values were determined at specific timepoints, at 75″ into the association step and at 55″ into the dissociation step (135″).
(§6) All absolute and relative IC50 values are provided in the Table 6 below, where absolute are based off the full binding sensorgram traces, and relative are based off of the max control traces.
(§7) In another experiment, the % inhibition for various A20 analog chemicals against the three different EphrinB2-EphB protein interactions was determined. Specifically, the percent inhibition for immobilized human EphrinB2-Fc binding to 25 nM soluble human EphB1-His (FIG. 76A, enlarged in FIG. 76D), EphB2-His (FIG. 76B, enlarged in FIG. 76E), and EphB4-His (FIG. 76C, enlarged in FIG. 76F) with 3511-I, 8009-9255, QTM-Br, A19, A19-NO2, and IM (all at 3.2 μM) was determined.

Assay [2] has as its target T1, EphrinB2-EphB2. Nature of the assay: Octet 80 sec association/500 sec dissociation, immobilized human EphrinB2-Fc binding to soluble human EphB2-His. Conditions: for EphB2 Inhibition Percent, Inhibition of Association ONLY: at 3.2 μM and 80 seconds; for EphB2 Inhibition Percent, Inhibition of Association ONLY / EphB2 Inhibition Percent, Inhibition of Association-Dissociation: immobilized human EphrinB2, 25 nM soluble human EphB2; for EphB2 Inhibition Percent, Inhibition of Association-Dissociation: at 3.2 μM and 580 seconds. On the procedure: as §1, §2, §3, §4, §5, §6, §7

The target in the next assay is T3, EphrinB2-EphB4 (Homo sapiens, UniProt P54760).
T3 construct: soluble human EphB1-His, EphB2-His, and EphB4-His ectodomains; commercially available human EphrinB1-Fc (EB1), EphrinB2-Fc (EB2), and EphrinB3-Fc (EB3) ectodomain proteins; purchased
T3 sequence (P54760 16-539 limits assumed): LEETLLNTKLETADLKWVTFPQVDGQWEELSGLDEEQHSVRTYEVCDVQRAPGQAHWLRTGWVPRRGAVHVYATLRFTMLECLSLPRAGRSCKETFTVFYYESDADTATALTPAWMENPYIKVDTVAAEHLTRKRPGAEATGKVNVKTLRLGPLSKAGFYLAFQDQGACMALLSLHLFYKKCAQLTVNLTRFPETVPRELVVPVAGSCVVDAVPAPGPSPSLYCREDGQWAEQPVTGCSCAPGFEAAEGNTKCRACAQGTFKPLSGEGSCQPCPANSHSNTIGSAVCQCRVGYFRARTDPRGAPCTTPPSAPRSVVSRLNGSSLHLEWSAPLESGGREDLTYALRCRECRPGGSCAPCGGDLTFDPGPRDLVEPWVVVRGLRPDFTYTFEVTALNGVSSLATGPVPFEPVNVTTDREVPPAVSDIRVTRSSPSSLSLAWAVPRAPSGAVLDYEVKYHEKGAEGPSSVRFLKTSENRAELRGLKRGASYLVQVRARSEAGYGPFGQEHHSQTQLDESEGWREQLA
The assay is described as follows: Octet 80 sec association/500 sec dissociation, immobilized human EphrinB2-Fc binding to soluble human EphB4-His. The note with it: for EphB4 Inhibition Percent, Inhibition of Association ONLY: at 3.2 μM and 80 seconds; for EphB4 Inhibition Percent, Inhibition of Association ONLY / EphB4 Inhibition Percent, Inhibition of Association-Dissociation: immobilized human EphrinB2, 25 nM soluble human EphB4; for EphB4 Inhibition Percent, Inhibition of Association-Dissociation: at 3.2 μM and 580 seconds. On the procedure:
as §1, §2, §3, §4, §5, §6, §7

[3] abbreviates: EphB1, 25 nM EphB1, 3.2 μM compound, A20-I as max control, 0* = less than 0, no inhibition.
The mark [4] stands for this setting: EphB2, 25 nM EphB2, 3.2 μM compound, A20-I as max control, 0* = less than 0, no inhibition.
Where [5] appears, read: EphB4, 25 nM EphB4, 3.2 μM compound, A20-I as max control, 0* = less than 0, no inhibition.

As to `O=S1(=O)CCN(Cc2cc(Br)c(O)c3ncccc23)CC1` [Compound 17, 4-((7-bromo-8-hydroxyquinolin-1-ium-5-yl)methyl)thiomorpholin-4-ium 1,1-dioxide chloride], the IC50 – broadly, the concentration needed to halve the response being measured – was 1480 nM on EphrinB2-EphB2 [1] (Absolute AUC/IC50, Table A); 1500 nM on EphrinB2-EphB2 [1] (Absolute Association IC50 (300 sec), Table A); 1260 nM on EphrinB2-EphB2 [1] (Absolute Dissociation IC50 (450 sec), Table A); 810 nM at EphrinB2-EphB2 [1] (Relative AUC/IC50, Table A, compound 7: association only); 890 nM on EphrinB2-EphB2 [1] (Relative Association IC50 (300 sec), Table A); 780 nM at EphrinB2-EphB2 [1] (Relative Dissociation IC50 (450 sec), Table A). Moreover, the “EphB1 Inhibition Percent, Inhibition of Association ONLY” value on EphrinB2-EphB1 was found to be 33.0%. Also, the “EphB1 Inhibition Percent, Inhibition of Association-Dissociation” value on EphrinB2-EphB1 is 48.0%. Also, the “EphB2 Inhibition Percent, Inhibition of Association ONLY” value at EphrinB2-EphB2 [2] is on record as 59.5%. Moreover, the “EphB2 Inhibition Percent, Inhibition of Association-Dissociation” value at EphrinB2-EphB2 [2] amounted to 74.5%. Moreover, the “EphB4 Inhibition Percent, Inhibition of Association ONLY” value at EphrinB2-EphB4 worked out at 18.1%. Also, on EphrinB2-EphB4, the “EphB4 Inhibition Percent, Inhibition of Association-Dissociation” value turned out to be 37.2%.
With `Oc1cccc2cccnc12` [Compound 102, 8-Hydroxyquinoline, reference compound], on EphrinB2-EphB1 (setting [3]), the “% Inhibition: Association + Dissociation (160 sec)” value (“% Inhibition … (160 sec)” for short) is given as 0* % and the “% Inhibition: Association ONLY (80 sec)” value was 0* %. Further, on EphrinB2-EphB1, the “EphB1 Inhibition Percent, Inhibition of Association ONLY” value is 0*% and the “EphB1 Inhibition Percent, Inhibition of Association-Dissociation” value is listed as 0*%. The “inhibition of EphrinB2-EphB interactions” value on EphrinB2-EphB2 [2] (3.2 μM, EphB1, EphB2 and EphB4) is given as “unable to disrupt any of the EphrinB2-EphB interactions”. Further, at EphrinB2-EphB2 [2] (setting [4]), the “% Inhibition … (160 sec)” value is 0* % and the “% Inhibition: Association ONLY (80 sec)” value is 0* %. Besides, on EphrinB2-EphB2 [2], the “EphB2 Inhibition Percent, Inhibition of Association ONLY” value is 0*% and the “EphB2 Inhibition Percent, Inhibition of Association-Dissociation” value is reported as 0*%. Also, at EphrinB2-EphB4 (setting [5]), the “% Inhibition … (160 sec)” value is recorded as 0* % and the “% Inhibition: Association ONLY (80 sec)” value is on record as 0* %. At EphrinB2-EphB4, the “EphB4 Inhibition Percent, Inhibition of Association ONLY” value is 0*% and the “EphB4 Inhibition Percent, Inhibition of Association-Dissociation” value is 0*%.
